Assay: Precipitation of alfaxalone from alfaxalone/2-hydroxypropyl-β-cyclodextrin complex solution on adding preservative without co-solvent
Assay type: physicochemical
Settings: upwards to 1% w/v (typical content); no co-solvent

OCc1ccccc1 [benzyl alcohol]
benzyl alcohol content at which significant precipitation occurs (titration): ≥ 0.2 % w/v

— patent US9492552B2, “Injectable aqueous pharmaceutical compositions comprising a cyclodextrin, a hydrophobic drug, a co-solvent, and a preservative” (JUROX PTY LTD, priority 2011, dated 2016)
